For the assay, the system named is T1, TthHPRT (hypoxanthine phosphoribosyltransferase Thermus thermophilus HB27).
T1 construct: gene hpt; C-terminal His-tag (pET-23a+), E. coli C3030
The experiment in a line: HPLC product quantification, initial rate, nonlinear regression. The assay is classed as biochemical. The following applies: 5 mM MgCl2, 20 mM Tris-HCl pH 8.0, 70 °C. An excerpt: HPLC product quantification, initial rate, nonlinear regression on TthHPRT (hypoxanthine phosphoribosyltransferase Thermus thermophilus HB27)

Regarding `O=P(O)(O)OC[C@H]1O[C@H](OP(=O)(O)OP(=O)(O)O)[C@H](O)[C@@H]1O` [PRPP], where the note is “0.50 mM hypoxanthine”, the Km is 220 ± 60 µM. For `Nc1nc2[nH]cnc2c(=O)[nH]1` [guanine], for the setting “1 mM PRPP”, the Michaelis-Menten constant (Km) was 28 ± 9 µM. As to `O=c1[nH]cnc2nc[nH]c12` [hypoxanthine], for the setting “1 mM PRPP”, the Km is 13 ± 4 µM.

For the origin of these results see paper PMC6317416, “Thermophilic phosphoribosyltransferases Thermus thermophilus HB27 in nucleotide synthesis” (Beilstein Journal of Organic Chemistry, 2018).
